Measurements published in ChEMBL document CHEMBL1201862, “PubChem BioAssay data set” (2004).
Active and inactive are the calls of the source.

How the values were obtained:
Type in all cases: functional
[1] = NIH-3T3 fibroblast cytotoxicity, dose response, cytotoxicity control, cell-based, fluorescence, Alamar Blue, secondary assay (AID 2327);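 also: NIH-3T3 mouse fibroblasts cultured with fluconazole at 8 µg/mL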
[2] = target: T1, Sentrin-specific protease 7 (Homo sapiens, UniProt Q9BQF6);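 also: Luminescence-based dose-response confirmation of ultra-high-throughput screening hits, measuring inhibition of SENP7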
T1 sequence (Q9BQF6 whole entry): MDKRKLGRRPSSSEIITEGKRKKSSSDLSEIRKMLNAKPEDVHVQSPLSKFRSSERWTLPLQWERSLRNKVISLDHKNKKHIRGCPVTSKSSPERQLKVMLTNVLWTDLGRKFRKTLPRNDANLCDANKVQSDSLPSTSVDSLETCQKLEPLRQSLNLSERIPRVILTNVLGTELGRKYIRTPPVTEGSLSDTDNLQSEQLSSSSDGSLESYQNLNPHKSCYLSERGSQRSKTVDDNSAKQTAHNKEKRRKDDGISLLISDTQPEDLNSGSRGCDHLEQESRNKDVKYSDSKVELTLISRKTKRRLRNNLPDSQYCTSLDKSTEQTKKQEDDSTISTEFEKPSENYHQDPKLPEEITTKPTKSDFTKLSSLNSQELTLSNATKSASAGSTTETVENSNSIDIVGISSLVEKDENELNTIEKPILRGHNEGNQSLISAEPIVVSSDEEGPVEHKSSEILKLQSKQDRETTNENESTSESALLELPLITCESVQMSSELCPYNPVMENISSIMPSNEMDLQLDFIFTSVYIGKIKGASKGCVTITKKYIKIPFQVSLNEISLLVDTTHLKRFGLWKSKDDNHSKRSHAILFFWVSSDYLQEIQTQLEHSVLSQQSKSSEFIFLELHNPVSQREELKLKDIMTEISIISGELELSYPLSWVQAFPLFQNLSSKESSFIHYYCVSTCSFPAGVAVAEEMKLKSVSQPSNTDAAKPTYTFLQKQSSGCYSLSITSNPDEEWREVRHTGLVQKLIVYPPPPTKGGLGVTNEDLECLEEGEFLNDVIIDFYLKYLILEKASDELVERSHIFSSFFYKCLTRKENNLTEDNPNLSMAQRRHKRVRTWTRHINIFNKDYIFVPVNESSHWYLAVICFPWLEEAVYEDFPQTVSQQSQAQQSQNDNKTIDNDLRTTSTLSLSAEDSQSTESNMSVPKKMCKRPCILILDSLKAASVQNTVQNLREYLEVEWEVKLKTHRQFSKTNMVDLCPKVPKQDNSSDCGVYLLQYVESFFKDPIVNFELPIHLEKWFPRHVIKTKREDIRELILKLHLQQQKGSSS

[3] = target: Leucine-rich repeat serine/threonine-protein kinase 2 (Homo sapiens, UniProt Q5S007);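 also: value from a broad kinome-wide panel profiling study in which LRRK2 was one of the kinases tested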
[4] = target: 5'-AMP-activated protein kinase catalytic subunit alpha-1 (Homo sapiens, UniProt Q13131)
[5] = target: Proto-oncogene tyrosine-protein kinase receptor Ret (Homo sapiens, UniProt P07949);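 also: measured within a kinome-wide profiling panel, RET as the panel member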
[6] = target: Dual specificity mitogen-activated protein kinase kinase 1 (Homo sapiens, UniProt Q02750); experiment: Navigating the Kinome. Panel member name: MAP2K1
[7] = target: Mitogen-activated protein kinase kinase kinase kinase 2 (Homo sapiens, UniProt Q12851);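 also: measured as one member of a kinome-wide kinase panel, with MAP4K2 as the panel entry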
[8] = target: Serine/threonine-protein kinase TBK1 (Homo sapiens, UniProt Q9UHD2); experiment: Navigating the Kinome. Panel member name: TBK1
[9] = target: Vascular endothelial growth factor receptor 1 (Homo sapiens, UniProt P17948);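 also: measured within a kinome-wide profiling panel, FLT1 as the panel member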
[10] = target: Cyclin-dependent kinase 7 (Homo sapiens, UniProt P50613);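 also: value comes from a kinome-wide kinase profiling panel in which CDK7 is one member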
[11] = target: Cyclin-dependent kinase 9 (Homo sapiens, UniProt P50750);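 also: value from the CDK9 entry of a kinome-spanning kinase panel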
[12] = target: Rho-associated protein kinase 1 (Homo sapiens, UniProt Q13464);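 also: measured within a broad kinome-wide panel profiling many kinases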
[13] = target: Tyrosine-protein kinase Lck (Homo sapiens, UniProt P06239);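 also: lck was assayed as one member of a kinase panel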
[14] = target: Macrophage-stimulating protein receptor (Homo sapiens, UniProt Q04912); experiment: Navigating the Kinome. Panel member name: MST1R
[15] = target: Vascular endothelial growth factor receptor 2 (Homo sapiens, UniProt P35968)
[16] = target: Serine/threonine-protein kinase TAO1 (Homo sapiens, UniProt Q7L7X3)
[17] = target: Insulin-like growth factor 1 receptor (Homo sapiens, UniProt P08069); experiment: Navigating the Kinome. Panel member name: IGF1R
[18] = target: High affinity nerve growth factor receptor (Homo sapiens, UniProt P04629);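 also: NTRK1 tested as one member of a kinome-wide profiling panel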
[19] = target: Leukocyte tyrosine kinase receptor (Homo sapiens, UniProt P29376); experiment: Navigating the Kinome. Panel member name: LTK

Chain of High affinity nerve growth factor receptor (P04629 whole entry): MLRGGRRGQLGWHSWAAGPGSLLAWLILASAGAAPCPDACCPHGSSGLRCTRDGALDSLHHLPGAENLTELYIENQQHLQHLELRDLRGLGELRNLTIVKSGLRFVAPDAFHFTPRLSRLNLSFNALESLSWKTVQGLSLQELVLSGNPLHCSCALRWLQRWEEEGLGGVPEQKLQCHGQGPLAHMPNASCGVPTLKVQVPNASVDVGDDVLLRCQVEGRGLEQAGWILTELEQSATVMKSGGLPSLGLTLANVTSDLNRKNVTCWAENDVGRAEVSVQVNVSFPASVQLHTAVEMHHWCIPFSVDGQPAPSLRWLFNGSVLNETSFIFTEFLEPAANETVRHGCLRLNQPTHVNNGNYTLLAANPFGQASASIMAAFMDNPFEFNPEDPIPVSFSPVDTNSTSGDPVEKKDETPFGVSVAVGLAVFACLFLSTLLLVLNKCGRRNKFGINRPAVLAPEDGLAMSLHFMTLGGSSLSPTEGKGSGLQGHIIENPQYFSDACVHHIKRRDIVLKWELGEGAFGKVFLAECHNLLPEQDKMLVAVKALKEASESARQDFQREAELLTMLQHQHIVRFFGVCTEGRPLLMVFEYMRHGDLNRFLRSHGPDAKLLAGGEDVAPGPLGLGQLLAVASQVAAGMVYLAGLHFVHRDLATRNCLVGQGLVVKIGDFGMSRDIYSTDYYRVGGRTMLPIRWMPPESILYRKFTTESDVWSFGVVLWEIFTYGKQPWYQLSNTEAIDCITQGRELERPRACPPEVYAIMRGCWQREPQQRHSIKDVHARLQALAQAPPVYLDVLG
Chain of Cyclin-dependent kinase 7 (P50613 whole entry): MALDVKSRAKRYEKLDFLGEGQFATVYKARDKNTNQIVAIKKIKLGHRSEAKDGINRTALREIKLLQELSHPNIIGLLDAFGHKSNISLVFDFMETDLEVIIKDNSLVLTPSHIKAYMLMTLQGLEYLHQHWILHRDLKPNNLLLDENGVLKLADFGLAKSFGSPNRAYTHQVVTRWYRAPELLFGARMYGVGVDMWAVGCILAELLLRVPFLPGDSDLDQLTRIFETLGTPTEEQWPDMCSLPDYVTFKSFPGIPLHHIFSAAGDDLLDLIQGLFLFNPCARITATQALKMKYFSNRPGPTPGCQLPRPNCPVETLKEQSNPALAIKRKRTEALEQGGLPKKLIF
Chain of Tyrosine-protein kinase Lck (P06239 whole entry): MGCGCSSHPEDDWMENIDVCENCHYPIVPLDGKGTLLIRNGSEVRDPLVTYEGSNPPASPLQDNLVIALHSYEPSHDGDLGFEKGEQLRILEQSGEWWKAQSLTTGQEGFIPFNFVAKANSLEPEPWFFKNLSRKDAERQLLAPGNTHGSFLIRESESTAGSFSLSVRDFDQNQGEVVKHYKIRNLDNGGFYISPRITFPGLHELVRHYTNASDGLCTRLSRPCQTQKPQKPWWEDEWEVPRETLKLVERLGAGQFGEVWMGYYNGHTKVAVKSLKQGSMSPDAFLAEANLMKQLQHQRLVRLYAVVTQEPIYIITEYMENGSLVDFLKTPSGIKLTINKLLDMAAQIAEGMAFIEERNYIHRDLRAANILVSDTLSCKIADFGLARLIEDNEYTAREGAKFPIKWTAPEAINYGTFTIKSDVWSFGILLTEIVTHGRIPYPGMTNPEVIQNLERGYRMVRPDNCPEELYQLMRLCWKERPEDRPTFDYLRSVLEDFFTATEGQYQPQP
Chain of Serine/threonine-protein kinase TAO1 (Q7L7X3 whole entry): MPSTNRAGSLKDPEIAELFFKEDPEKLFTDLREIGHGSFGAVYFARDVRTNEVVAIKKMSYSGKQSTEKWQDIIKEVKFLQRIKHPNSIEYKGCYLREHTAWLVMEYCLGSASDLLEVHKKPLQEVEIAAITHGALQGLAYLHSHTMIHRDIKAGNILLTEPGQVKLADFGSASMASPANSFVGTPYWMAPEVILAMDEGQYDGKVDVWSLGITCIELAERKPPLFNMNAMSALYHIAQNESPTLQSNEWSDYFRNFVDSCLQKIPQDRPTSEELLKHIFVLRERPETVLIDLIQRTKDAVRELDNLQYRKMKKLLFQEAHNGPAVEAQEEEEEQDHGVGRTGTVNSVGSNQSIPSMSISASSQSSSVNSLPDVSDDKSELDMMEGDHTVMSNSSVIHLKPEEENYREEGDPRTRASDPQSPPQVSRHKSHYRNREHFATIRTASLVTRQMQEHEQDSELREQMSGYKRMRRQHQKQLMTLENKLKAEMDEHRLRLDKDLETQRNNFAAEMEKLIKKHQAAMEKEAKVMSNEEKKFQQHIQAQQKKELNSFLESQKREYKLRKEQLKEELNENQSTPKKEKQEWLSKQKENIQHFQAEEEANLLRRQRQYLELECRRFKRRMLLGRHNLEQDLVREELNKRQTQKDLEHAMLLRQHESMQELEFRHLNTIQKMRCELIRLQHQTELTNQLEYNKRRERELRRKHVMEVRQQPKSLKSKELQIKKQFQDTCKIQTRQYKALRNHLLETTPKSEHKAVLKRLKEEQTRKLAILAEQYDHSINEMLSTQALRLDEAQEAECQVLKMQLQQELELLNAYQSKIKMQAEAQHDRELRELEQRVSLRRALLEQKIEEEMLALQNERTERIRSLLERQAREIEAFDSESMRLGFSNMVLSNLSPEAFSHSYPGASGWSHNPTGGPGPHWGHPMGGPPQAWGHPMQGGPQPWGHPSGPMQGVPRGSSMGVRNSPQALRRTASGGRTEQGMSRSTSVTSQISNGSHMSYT
Chain of Mitogen-activated protein kinase kinase kinase kinase 2 (Q12851 whole entry): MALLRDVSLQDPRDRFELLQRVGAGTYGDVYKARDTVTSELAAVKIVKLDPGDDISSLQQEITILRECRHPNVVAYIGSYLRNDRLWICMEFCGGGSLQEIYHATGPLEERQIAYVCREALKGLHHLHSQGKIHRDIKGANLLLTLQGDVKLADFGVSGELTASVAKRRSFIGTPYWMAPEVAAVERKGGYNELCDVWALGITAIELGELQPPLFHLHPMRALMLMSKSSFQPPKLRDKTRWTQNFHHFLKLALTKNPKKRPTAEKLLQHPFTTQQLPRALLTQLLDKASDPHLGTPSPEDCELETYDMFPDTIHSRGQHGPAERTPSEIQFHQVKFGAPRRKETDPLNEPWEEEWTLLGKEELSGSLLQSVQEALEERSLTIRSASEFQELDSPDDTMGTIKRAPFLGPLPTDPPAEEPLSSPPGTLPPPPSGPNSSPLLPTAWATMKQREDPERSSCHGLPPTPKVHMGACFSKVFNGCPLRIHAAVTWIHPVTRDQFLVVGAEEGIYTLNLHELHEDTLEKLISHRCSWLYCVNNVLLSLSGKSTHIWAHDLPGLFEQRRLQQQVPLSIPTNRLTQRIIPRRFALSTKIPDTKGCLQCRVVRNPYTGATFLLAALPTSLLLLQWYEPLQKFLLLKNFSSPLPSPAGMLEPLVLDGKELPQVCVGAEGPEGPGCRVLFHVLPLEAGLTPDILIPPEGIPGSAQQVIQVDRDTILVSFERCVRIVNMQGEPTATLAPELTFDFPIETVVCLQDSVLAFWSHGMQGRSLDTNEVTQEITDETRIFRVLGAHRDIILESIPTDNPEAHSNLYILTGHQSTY
Chain of Cyclin-dependent kinase 9 (P50750 whole entry): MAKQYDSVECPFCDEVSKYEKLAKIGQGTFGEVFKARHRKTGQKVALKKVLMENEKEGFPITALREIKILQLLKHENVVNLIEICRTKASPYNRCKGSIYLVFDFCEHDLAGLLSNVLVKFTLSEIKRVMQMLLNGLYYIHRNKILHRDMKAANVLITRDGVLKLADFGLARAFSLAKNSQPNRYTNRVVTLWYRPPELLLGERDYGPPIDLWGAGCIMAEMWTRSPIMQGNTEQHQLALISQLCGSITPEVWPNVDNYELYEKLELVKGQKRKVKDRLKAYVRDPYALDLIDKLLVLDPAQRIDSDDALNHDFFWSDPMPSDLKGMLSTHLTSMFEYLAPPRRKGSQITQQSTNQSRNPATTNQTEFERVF
Chain of Proto-oncogene tyrosine-protein kinase receptor Ret (P07949 whole entry): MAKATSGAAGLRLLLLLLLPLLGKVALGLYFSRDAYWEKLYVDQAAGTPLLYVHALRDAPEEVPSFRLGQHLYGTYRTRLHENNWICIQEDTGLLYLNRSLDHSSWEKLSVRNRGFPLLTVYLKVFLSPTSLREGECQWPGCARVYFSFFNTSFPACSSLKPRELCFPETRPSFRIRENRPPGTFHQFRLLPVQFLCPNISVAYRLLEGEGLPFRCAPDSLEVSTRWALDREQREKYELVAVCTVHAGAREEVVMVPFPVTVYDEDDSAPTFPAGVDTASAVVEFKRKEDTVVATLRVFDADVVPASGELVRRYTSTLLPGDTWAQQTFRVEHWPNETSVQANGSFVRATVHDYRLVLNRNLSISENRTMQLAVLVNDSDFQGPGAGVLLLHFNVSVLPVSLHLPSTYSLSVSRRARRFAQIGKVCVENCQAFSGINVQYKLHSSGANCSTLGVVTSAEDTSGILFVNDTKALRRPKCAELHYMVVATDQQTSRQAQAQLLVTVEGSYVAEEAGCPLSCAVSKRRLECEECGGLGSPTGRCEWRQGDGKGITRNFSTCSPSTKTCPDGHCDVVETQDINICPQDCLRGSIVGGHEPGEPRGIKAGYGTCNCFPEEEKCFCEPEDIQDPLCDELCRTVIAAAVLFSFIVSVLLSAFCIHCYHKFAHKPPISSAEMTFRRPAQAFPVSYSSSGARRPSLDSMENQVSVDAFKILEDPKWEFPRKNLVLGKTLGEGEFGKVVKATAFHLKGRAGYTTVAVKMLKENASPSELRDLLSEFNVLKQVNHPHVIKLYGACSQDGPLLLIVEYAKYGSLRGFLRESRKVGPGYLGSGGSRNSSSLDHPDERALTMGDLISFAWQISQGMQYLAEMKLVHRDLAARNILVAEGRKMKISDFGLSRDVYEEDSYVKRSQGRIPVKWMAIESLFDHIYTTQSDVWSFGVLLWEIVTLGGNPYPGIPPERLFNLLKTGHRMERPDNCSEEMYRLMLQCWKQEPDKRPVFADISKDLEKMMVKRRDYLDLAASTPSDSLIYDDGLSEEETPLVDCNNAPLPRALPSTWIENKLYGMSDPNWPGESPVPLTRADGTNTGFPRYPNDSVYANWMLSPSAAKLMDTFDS

Structure (SMILES)	EC50 [1]	IC50 [2]	Ki [3]	Ki [4]	Ki [5]	Ki [6]	Ki [7]	Ki [8]	Ki [9]	Ki [10]	Ki [11]	Ki [12]	Ki [13]	Ki [14]	Ki [15]	Ki [16]	Ki [17]	Ki [18]	Ki [19]
CNC[C@H](Cc1ccccc1)NC[C@@H](Cc1cccc2ccccc12)NCCc1ccc(C)cc1	> 160 µM (inconclusive)	–	–	–	–	–	–	–	–	–	–	–	–	–	–	–	–	–	–
Nc1nnc2c(n1)CCCC2	–	10.2 µM (active)	–	–	–	–	–	–	–	–	–	–	–	–	–	–	–	–	–
O=C(N/N=C/c1c(O)ccc2ccccc12)c1[nH]ncc1Br	–	7.19 µM (active)	–	–	–	–	–	–	–	–	–	–	–	–	–	–	–	–	–
Nc1c(-c2ccc(NC(=O)Nc3cccc(C(F)(F)F)c3)cc2)cnc2c(-c3ccc4c(c3)OCO4)cnn12	–	–	> 2.51 µM (inactive)	> 3.16 µM (inactive)	0.00398 µM (active)	> 3.16 µM (inactive)	> 2.51 µM (inactive)	> 3.16 µM (inactive)	0.251 µM (active)	> 3.98 µM (inactive)	> 1.58 µM (inactive)	> 3.98 µM (inactive)	0.0316 µM (active)	> 3.98 µM (inactive)	0.0126 µM (active)	> 6.31 µM (inactive)	> 2.51 µM (inactive)	0.1 µM (active)	> 2.51 µM (inactive)
O=C(Nc1cc(-c2c[nH]c3ncccc23)cc(Cl)n1)c1ccccc1	–	–	> 2.51 µM (inactive)	> 3.16 µM (inactive)	> 3.16 µM (inactive)	> 3.16 µM (inactive)	> 2.51 µM (inactive)	> 3.16 µM (inactive)	> 3.98 µM (inactive)	> 3.98 µM (inactive)	> 1.58 µM (inactive)	> 0.316 µM (inactive)	> 6.31 µM (inactive)	> 3.98 µM (inactive)	> 2.51 µM (inactive)	> 6.31 µM (inactive)	> 2.51 µM (inactive)	> 3.16 µM (inactive)	> 2.51 µM (inactive)
CCN1C(=Cc2sc3ccccc3[n+]2C)C=Cc2cccc(C)c21	15.5 µM (inconclusive)	–	–	–	–	–	–	–	–	–	–	–	–	–	–	–	–	–	–
